Measured values taken from ChEMBL document CHEMBL5230155, “Recent contributions of quinolines to antimalarial and anticancer drug discovery research” (Eur J Med Chem, 2021).
pEC50, pIC50: −log10 of the molar value. Values after ≈ are worked out from the molar mass of the structure shown. Blank lines part the entries; values can stand above or below the compound they belong to.

What was measured:
Plasmodium falciparum [1] = test: microbe, parasite or virus in culture
Description: Antimalarial activity against Plasmodium falciparum

HCT-116 = test: Cytotoxicity against human HCT-116 cells; format: functional, cell-based
HepG2 = test: Cytotoxicity against human HepG2 cells; format: functional, cell-based; settings: Homo sapiens, HepG2
Plasmodium falciparum [2] = test: microbe, parasite or virus in culture; settings: NF54
Description: Antimalarial activity against CQ-sensitive Plasmodium falciparum NF54

Plasmodium falciparum [3] = test: Antimalarial activity against CQ-resistant Plasmodium falciparum K1; format: functional, organism-based
[4] = target: Cathepsin B (Homo sapiens) (UniProt P07858); test: Inhibition of human cathepsin B exopeptidase activity at 50 uM relative to control
Plasmodium falciparum [5] = test: Antimalarial activity against CQ-sensitive Plasmodium falciparum 3D7; format: functional, organism-based
Plasmodium falciparum [6] = test: Antimalarial activity against CQ-sensitive Plasmodium falciparum D6; format: functional, organism-based
Plasmodium falciparum [7] = test: Antimalarial activity against CQ-resistant Plasmodium falciparum W2; format: functional, organism-based
MCF7 = test: Antiproliferative activity against human MCF7 cells; format: functional, cell-based; settings: Homo sapiens, MCF7
HeLa = test: Antiproliferative activity against human HeLa cells; format: functional, cell-based

IC50 (Plasmodium falciparum [1]): 0.12 µg/mL (≈ 0.43 µM)
Structure (SMILES): COc1ccc2nc(-c3ccccc3)cc(C(=O)O)c2c1

Structure (SMILES): CCOC(=O)C(C#N)C(=O)c1cc(/C=C/c2ccc(N(C)C)cc2)nc2ccc(Br)cc12 (stereo not given)
IC50 (HCT-116): 7.7 µg/mL (≈ 15.6 µM)
IC50 (HepG2): 7.7 µg/mL

Structure (SMILES): C#Cc1ccc(-c2cn(CCNc3ccnc4cc(Cl)ccc34)nn2)cc1F
pIC50 (Plasmodium falciparum [2]): 6.85
pIC50 (Plasmodium falciparum [3]): 6.80

inhibition [4]: 19.4%
Structure (SMILES): O=C(NCc1ccc(F)cc1)c1cc([N+](=O)[O-])c2cccnc2c1O

Structure (SMILES): Clc1ccc2c(NCCn3cncc3C3CCCC3)ccnc2c1
pIC50 (Plasmodium falciparum [5]): 7.10
pIC50 (Plasmodium falciparum [3]): 6.54

IC50 (Plasmodium falciparum [1]): 0.1 µg/mL (≈ 0.199 µM)
Structure (SMILES): O=C(NNC(=S)Nc1ccccc1)c1cc(-c2c(F)cccc2F)nc2ccc(C(F)(F)F)cc12

inhibition [4]: 19.4%
Structure (SMILES): CCCCNC(=O)c1cc([N+](=O)[O-])c2cccnc2c1O

inhibition [4]: 19.4%
Structure (SMILES): O=C(NC1CCCCC1)c1cc([N+](=O)[O-])c2cccnc2c1O

IC50 (Plasmodium falciparum [1]): 0.036 µg/mL (≈ 0.0807 µM)
Structure (SMILES): OCc1cc(-c2cn(-c3ccc(Cl)cc3Cl)nc2-c2ccccc2)nc2ccccc12

Structure (SMILES): CCCCCCCCOc1c(OC)cc(NC(C)CCCN)c2nc(C(C)(C)C)ccc12 (stereo not given)
IC50 (Plasmodium falciparum [6]): 0.02 µg/mL
IC50 (Plasmodium falciparum [7]): 0.022 µg/mL

Structure (SMILES): C=C[C@@H]1CN2CC[C@@H]1C[C@@H]2[C@@H](O)c1ccnc2ccc(OC)cc12
pIC50 (Plasmodium falciparum [2]): 6.91

IC50 (Plasmodium falciparum [1]): < 0.3 µg/mL
Structure (SMILES): O=C(NNC(=S)Nc1ccc([N+](=O)[O-])cc1)c1cc(-c2ccccc2Cl)nc2ccccc12

pIC50 (MCF7): 5.86
Structure (SMILES): Cc1ccc(S(=O)(=O)Oc2ccc(Cl)c3cccnc23)cc1

IC50 (Plasmodium falciparum [1]): 0.0879 µg/mL (≈ 0.168 µM)
Structure (SMILES): Cc1ccc2nc(-c3cn(-c4ccc(Cl)cc4)nc3-c3ccccc3)cc(C(=O)NCCCN(C)C)c2c1

Structure (SMILES): Cc1c(Cl)ccc2cc(/C=C/C(=O)c3cccc(Br)c3)c(Cl)nc12
pIC50 (Plasmodium falciparum [6]): > 7.30
pIC50 (Plasmodium falciparum [7]): > 7.30

pIC50 (MCF7): 5.86
Structure (SMILES): Cc1cc(C)c(S(=O)(=O)Oc2ccc(Cl)c3cccnc23)c(C)c1

Structure (SMILES): O=C1c2ccc(N3CCN(CCO)CC3)cc2C(=O)N1CCCCNc1ccnc2cc(Cl)ccc12
pIC50 (Plasmodium falciparum [7]): 8.22

Structure (SMILES): O=C1c2ccc(N3CCN(CCO)CC3)cc2C(=O)N1CCCCCCNc1ccnc2cc(Cl)ccc12
pIC50 (Plasmodium falciparum [7]): 8.22

Structure (SMILES): Cc1ccc2nc(/C=C/c3ccc(N(C)C)cc3)cc(C(=O)O)c2c1
IC50 (HCT-116): 7.7 µg/mL (≈ 23.2 µM)
IC50 (HepG2): 7.7 µg/mL

IC50 (Plasmodium falciparum [1]): < 0.3 µg/mL
Structure (SMILES): O=C(NNC(=S)NC1CCCCC1)c1cc(-c2ccccc2Cl)nc2ccccc12

Structure (SMILES): CCN(CC)c1ccc2c(c1)C(=O)N(CCC(=O)NCCNc1ccnc3cc(Cl)ccc13)C2=O
pIC50 (Plasmodium falciparum [7]): 7.01

Structure (SMILES): Cc1c(Cl)ccc2cc(/C=C/C(=O)c3ccccc3Br)c(Cl)nc12
pIC50 (Plasmodium falciparum [6]): > 7.30
pIC50 (Plasmodium falciparum [7]): > 7.30

Structure (SMILES): C#Cc1ccc(-c2cn(CCNc3ccnc4cc(Cl)ccc34)nn2)cc1
pIC50 (Plasmodium falciparum [2]): 6.85
pIC50 (Plasmodium falciparum [3]): 6.80

pIC50 (Plasmodium falciparum [5]): 5.54
Structure (SMILES): O=C(/C=C/C(=O)Nc1cccc(F)c1)NCCCCNc1cc(C(F)(F)F)nc2c(C(F)(F)F)cccc12

Structure (SMILES): C=C[C@H]1CN2CC[C@H]1C[C@H]2[C@H](O)c1ccnc2ccc(OC)cc12 [QUININE]
pIC50 (Plasmodium falciparum [2]): 7.66
IC50 (Plasmodium falciparum [1]): 0.26 µg/mL (≈ 0.801 µM)

Structure (SMILES): Cc1ccsc1-c1cncn1CCNc1ccnc2cc(Cl)ccc12
pIC50 (Plasmodium falciparum [5]): 7.10
pIC50 (Plasmodium falciparum [3]): 6.54

Structure (SMILES): Cc1c(Cl)ccc2cc(/C=C/C(=O)c3csc(Cl)c3)c(Cl)nc12
pIC50 (Plasmodium falciparum [6]): > 7.30
pIC50 (Plasmodium falciparum [7]): > 7.30

Structure (SMILES): Cc1c(Cl)ccc2cc(/C=C/C(=O)c3ccc(Cl)cc3)c(Cl)nc12
pIC50 (Plasmodium falciparum [6]): > 7.30
pIC50 (Plasmodium falciparum [7]): > 7.30

inhibition [4]: 19.4%
Structure (SMILES): CC(C)NC(=O)c1cc([N+](=O)[O-])c2cccnc2c1O

pIC50 (MCF7): 5.86
Structure (SMILES): Cc1cc(S(=O)(=O)c2ccccc2[N+](=O)[O-])c2ccccc2n1

IC50 (Plasmodium falciparum [1]): < 0.3 µg/mL
Structure (SMILES): CC(C)NC(=S)NNC(=O)c1cc(-c2ccccc2Cl)nc2ccccc12

IC50 (Plasmodium falciparum [1]): < 0.3 µg/mL
Structure (SMILES): O=C(NNC(=S)Nc1ccc(Cl)cc1Cl)c1cc(-c2ccccc2Cl)nc2ccccc12

Structure (SMILES): O=C1c2cccc(N3CCOCC3)c2C(=O)N1CCCCCCNc1ccnc2cc(Cl)ccc12
pIC50 (Plasmodium falciparum [7]): 8.22

IC50 (Plasmodium falciparum [1]): < 0.3 µg/mL
Structure (SMILES): COc1ccccc1NC(=S)NNC(=O)c1cc(-c2ccccc2Cl)nc2ccccc12

IC50 (Plasmodium falciparum [1]): 0.02 µg/mL (≈ 0.0571 µM)
Structure (SMILES): Cc1nc2ccccc2c(C)c1C(=O)NNC(=S)Nc1ccccc1

pIC50 (Plasmodium falciparum [2]): 7.62
Structure (SMILES): CC1(C)CC(NCc2cc3cccc(Cl)c3nc2N2CCCC2)CCO1 (stereo not given)

pIC50 (MCF7): 5.86
Structure (SMILES): Cc1cc(S(=O)(=O)c2ccc(C#N)cc2)c2ccccc2n1

IC50 (Plasmodium falciparum [1]): 0.12 µg/mL (≈ 0.423 µM)
Structure (SMILES): O=C(O)c1cc(-c2ccccc2)nc2ccc(Cl)cc12

Structure (SMILES): CN(C)C/C=C/C(=O)Nc1cc2c(Nc3ccc(F)c(Cl)c3)ncnc2cc1O[C@H]1CCOC1 [AFATINIB]
IC50 (HCT-116): 5.3 µg/mL (≈ 10.9 µM)
IC50 (HepG2): 5.3 µg/mL

Structure (SMILES): FC(F)(F)c1ccc(-c2cncn2CCNc2ccnc3cc(Cl)ccc23)cc1
pIC50 (Plasmodium falciparum [5]): 7.10
pIC50 (Plasmodium falciparum [3]): 6.54

Structure (SMILES): CN(C)c1ccc(/C=C/c2cc(-c3nnc(N)s3)c3cc(Br)ccc3n2)cc1
IC50 (HCT-116): 7.7 µg/mL (≈ 17 µM)
IC50 (HepG2): 7.7 µg/mL

Structure (SMILES): CN(C)c1ccc(/C=C/c2cc(C(=O)O)c3cc(Br)ccc3n2)cc1
IC50 (HCT-116): 7.7 µg/mL (≈ 19.4 µM)
IC50 (HepG2): 7.7 µg/mL

IC50 (Plasmodium falciparum [1]): 0.1 µg/mL (≈ 0.18 µM)
Structure (SMILES): O=C(NNC(=S)Nc1cc(Cl)cc(Cl)c1)c1cc(-c2ccc(F)cc2F)nc2cc(Cl)c(F)cc12

Structure (SMILES): COc1ccc(C2CN3CCC2CC3[C@H](O)c2ccnc3ccc(OC)cc23)cc1 (mixture of isomers)
pIC50 (Plasmodium falciparum [2]): 8.30

Structure (SMILES): CCCCCCCOc1c(OC)cc(NC(C)CCCN)c2nc(C(C)(C)C)ccc12 (stereo not given)
IC50 (Plasmodium falciparum [6]): 0.02 µg/mL
IC50 (Plasmodium falciparum [7]): 0.022 µg/mL

Structure (SMILES): CC(C)(C)c1cncn1CCNc1ccnc2cc(Cl)ccc12
pIC50 (Plasmodium falciparum [5]): 7.10
pIC50 (Plasmodium falciparum [3]): 6.54

pEC50 (Plasmodium falciparum [6]): 7.92
Structure (SMILES): COc1ccc(Nc2ccnc3cc(-c4ccc(S(=O)(=O)N5CCN(C)CC5)cc4)ccc23)cc1Cl

Structure (SMILES): Cc1cccc2cc(CNC3CCOC(C)(C)C3)c(N3CCCC3)nc12 (stereo not given)
pIC50 (Plasmodium falciparum [2]): 7.66
pIC50 (Plasmodium falciparum [3]): 6.76

IC50 (Plasmodium falciparum [1]): 0.02 µg/mL (≈ 0.0549 µM)
Structure (SMILES): Cc1ccc(NC(=S)NNC(=O)c2c(C)nc3ccccc3c2C)cc1

pIC50 (HeLa): 7.40
Structure (SMILES): N#CN=C(NCCCCCCOc1ccc(Cl)cc1)Nc1ccncc1 [CHS-828]

Structure (SMILES): CCCCCOc1c(OC)cc(NC(C)CCCN)c2nc(C(C)(C)C)ccc12 (stereo not given)
IC50 (Plasmodium falciparum [6]): 0.02 µg/mL
IC50 (Plasmodium falciparum [7]): 0.022 µg/mL

IC50 (Plasmodium falciparum [1]): 0.1 µg/mL (≈ 0.201 µM)
Structure (SMILES): O=C(NNC(=S)Nc1ccc([N+](=O)[O-])cc1)c1cc(-c2ccc(F)cc2F)nc2ccc(F)cc12

Structure (SMILES): Cc1c(Cl)ccc2cc(/C=C/C(=O)c3ccc(Br)s3)c(Cl)nc12
pIC50 (Plasmodium falciparum [6]): > 7.30
pIC50 (Plasmodium falciparum [7]): > 7.30

Structure (SMILES): O=C(N/N=C/c1cc(O)ccc1O)c1ccc(Nc2ccnc3ccccc23)cc1
pIC50 (HepG2): 4.56

Structure (SMILES): C#Cc1ccc(-c2cn(CCNc3ccnc4cc(Cl)ccc34)nn2)c(F)c1
pIC50 (Plasmodium falciparum [2]): 6.85
pIC50 (Plasmodium falciparum [3]): 6.80

Structure (SMILES): N=C(N=C(N)N)SCCCCNc1ccnc2cc(Cl)ccc12
pIC50 (Plasmodium falciparum [6]): 6.21
pIC50 (Plasmodium falciparum [7]): 6.37

Structure (SMILES): O=C1c2ccc(N3CCOCC3)cc2C(=O)N1CCCCCCNc1ccnc2cc(Cl)ccc12
pIC50 (Plasmodium falciparum [7]): 8.22

Structure (SMILES): CN(C)CCNCc1ccc(-c2cc(-c3ccc(CNCCN(C)C)cc3)c3ccccc3n2)cc1
pIC50 (Plasmodium falciparum [5]): 7.49
pIC50 (HepG2): 5.51
pIC50 (Plasmodium falciparum [7]): 6.47

Structure (SMILES): CCCCCCOc1c(OC)cc(NC(C)CCCN)c2nc(C(C)(C)C)ccc12 (stereo not given)
IC50 (Plasmodium falciparum [6]): 0.02 µg/mL
IC50 (Plasmodium falciparum [7]): 0.022 µg/mL

Structure (SMILES): O=C1c2ccc(N3CCN(CCO)CC3)cc2C(=O)N1CCCNc1ccnc2cc(Cl)ccc12
pIC50 (Plasmodium falciparum [7]): 8.22

Structure (SMILES): OCCNCCNc1ccnc2cc(Cl)ccc12
pIC50 (Plasmodium falciparum [5]): 7.72
pIC50 (Plasmodium falciparum [7]): 6.52

Structure (SMILES): COc1ccc2nccc([C@@H](O)C3CC4CCN3CC4c3ccc(C(F)(F)F)cc3)c2c1 (mixture of isomers)
pIC50 (Plasmodium falciparum [2]): 8.30

IC50 (Plasmodium falciparum [1]): 0.092 µg/mL (≈ 0.223 µM)
Structure (SMILES): OCc1cc(-c2cn(-c3ccc(Cl)cc3)nc2-c2ccccc2)nc2ccccc12

Structure (SMILES): COc1cccc(NC(=S)NNC(=O)c2cc(-c3ccc(C(F)(F)F)cc3)nc3ccc(F)cc23)c1
IC50 (Plasmodium falciparum [1]): 0.1 µg/mL (≈ 0.194 µM)

IC50 (Plasmodium falciparum [1]): < 0.3 µg/mL
Structure (SMILES): O=C(NNC(=S)Nc1cccc(Cl)c1)c1cc(-c2ccccc2Cl)nc2ccccc12

IC50 (Plasmodium falciparum [1]): 0.1 µg/mL (≈ 0.162 µM)
Structure (SMILES): O=C(NNC(=S)Nc1c(F)cccc1F)c1cc(-c2ccccc2Br)nc2c(Cl)cc(C(F)(F)F)cc12

Structure (SMILES): CC(C)c1ccc(-c2cncn2CCNc2ccnc3cc(Cl)ccc23)cc1
pIC50 (Plasmodium falciparum [5]): 7.10
pIC50 (Plasmodium falciparum [3]): 6.54
